Assay [1] deals with T1, Epidermal growth factor receptor [1-763,'FHEA',764-1210] (UniProt P00533).
T1 construct: 1-763,'FHEA',764-1210
The experiment in a line: Inhibitory Activity of Compounds Against EGFR Mutant Enzyme. As for the experimental part: (§1) The activity of the compounds of the present invention against EGFR mutant enzymes was measured using the HTRF system purchased from Cisbio as follows. For an EGFR mutant enzyme, the EGFR del19 enzyme was a recombinant protein purchased from Carna Biosciences, and the EGFR A763_Y764insFHEA enzyme was a recombinant protein purchased from SignalChem, respectively.The composition of the assay buffer used for activity measurement was 50 mM tris-HCl pH 7.5, 100 mM NaCl, 7.5 mM MgCl2, 3 mM KCl, 0.01% tween 20, 0.1% BSA, and 1 mM DTT. An enzymatic reaction was performed using a peptide substrate labeled with ATP at a concentration of […] and biotin at a concentration of […]. The analysis of the inhibitory effect of the compounds on EGFR activity was performed according to the following method.Component 1:4 μL of EGFR mutant enzymeComponent 2:2 μL of compound solutionComponent 3:4 μL of ATP and a biotin labeled peptideThe enzyme reaction begins by first mixing component 1 and component 2 and then adding component 3 thereto. After the reaction at 37° C. for 2 hours, […] of a measurement solution consisting of streptavidin-XL665 and a europium-labeled anti-phosphotyrosine antibody purchased from Cisbio was added to the enzyme reaction solution and reacted at room temperature for 1 hour. Finally, the ratio of fluorescence values at 615 nm and 665 nm was measured using Perkin-Elmer's Envision instrument to calculate enzyme activity and confirm the inhibitory ability of the compounds.

For assay [2], the target named is T2, Epidermal growth factor receptor [DEL746-750] (Homo sapiens, UniProt P00533).
T2 construct: gene EGFR
T2 sequence (P00533 with tags, fused parts or gaps DEL746-750 limits assumed, stated change not applied): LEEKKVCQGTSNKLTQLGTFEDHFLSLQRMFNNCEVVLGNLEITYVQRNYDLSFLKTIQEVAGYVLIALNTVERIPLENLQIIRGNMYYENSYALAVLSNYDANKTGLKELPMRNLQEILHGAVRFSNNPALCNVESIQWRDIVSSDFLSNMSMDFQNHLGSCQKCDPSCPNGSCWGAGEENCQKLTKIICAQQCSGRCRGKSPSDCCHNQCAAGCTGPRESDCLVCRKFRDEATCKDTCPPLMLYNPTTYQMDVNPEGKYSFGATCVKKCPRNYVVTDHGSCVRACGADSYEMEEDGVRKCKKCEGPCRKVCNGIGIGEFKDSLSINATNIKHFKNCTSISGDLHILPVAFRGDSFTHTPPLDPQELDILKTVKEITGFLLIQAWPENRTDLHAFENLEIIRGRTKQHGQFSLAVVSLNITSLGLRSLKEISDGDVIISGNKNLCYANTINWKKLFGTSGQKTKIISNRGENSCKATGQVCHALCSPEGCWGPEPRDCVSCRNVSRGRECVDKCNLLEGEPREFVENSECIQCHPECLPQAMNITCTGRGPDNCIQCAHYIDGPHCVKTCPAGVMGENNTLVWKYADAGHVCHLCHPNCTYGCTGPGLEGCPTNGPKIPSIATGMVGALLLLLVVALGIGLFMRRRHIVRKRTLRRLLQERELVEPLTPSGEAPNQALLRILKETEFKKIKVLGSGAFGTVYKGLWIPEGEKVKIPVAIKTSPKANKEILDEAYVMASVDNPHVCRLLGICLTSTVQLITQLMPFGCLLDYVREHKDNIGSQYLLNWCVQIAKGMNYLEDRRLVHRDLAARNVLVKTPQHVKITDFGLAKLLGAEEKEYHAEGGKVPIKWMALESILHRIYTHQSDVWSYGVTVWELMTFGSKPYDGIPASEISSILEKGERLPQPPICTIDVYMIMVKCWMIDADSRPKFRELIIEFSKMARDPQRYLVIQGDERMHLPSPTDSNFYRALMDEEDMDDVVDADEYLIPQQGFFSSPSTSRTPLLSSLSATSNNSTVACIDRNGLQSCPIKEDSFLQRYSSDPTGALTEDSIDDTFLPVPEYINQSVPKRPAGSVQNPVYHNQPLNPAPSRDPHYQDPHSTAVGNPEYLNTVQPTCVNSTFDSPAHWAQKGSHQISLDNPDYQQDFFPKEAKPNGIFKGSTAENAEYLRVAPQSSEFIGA
The description is as above. As for the experimental part: as §1

For assay [3], the target named is T3, Receptor tyrosine-protein kinase erbB-2 [1-775,'YVMA',776-1255] (Homo sapiens, UniProt P04626).
T3 construct: 1-775,'YVMA',776-1255
T3 sequence (P04626 with tags, fused parts or gaps INS775YVMA limits assumed): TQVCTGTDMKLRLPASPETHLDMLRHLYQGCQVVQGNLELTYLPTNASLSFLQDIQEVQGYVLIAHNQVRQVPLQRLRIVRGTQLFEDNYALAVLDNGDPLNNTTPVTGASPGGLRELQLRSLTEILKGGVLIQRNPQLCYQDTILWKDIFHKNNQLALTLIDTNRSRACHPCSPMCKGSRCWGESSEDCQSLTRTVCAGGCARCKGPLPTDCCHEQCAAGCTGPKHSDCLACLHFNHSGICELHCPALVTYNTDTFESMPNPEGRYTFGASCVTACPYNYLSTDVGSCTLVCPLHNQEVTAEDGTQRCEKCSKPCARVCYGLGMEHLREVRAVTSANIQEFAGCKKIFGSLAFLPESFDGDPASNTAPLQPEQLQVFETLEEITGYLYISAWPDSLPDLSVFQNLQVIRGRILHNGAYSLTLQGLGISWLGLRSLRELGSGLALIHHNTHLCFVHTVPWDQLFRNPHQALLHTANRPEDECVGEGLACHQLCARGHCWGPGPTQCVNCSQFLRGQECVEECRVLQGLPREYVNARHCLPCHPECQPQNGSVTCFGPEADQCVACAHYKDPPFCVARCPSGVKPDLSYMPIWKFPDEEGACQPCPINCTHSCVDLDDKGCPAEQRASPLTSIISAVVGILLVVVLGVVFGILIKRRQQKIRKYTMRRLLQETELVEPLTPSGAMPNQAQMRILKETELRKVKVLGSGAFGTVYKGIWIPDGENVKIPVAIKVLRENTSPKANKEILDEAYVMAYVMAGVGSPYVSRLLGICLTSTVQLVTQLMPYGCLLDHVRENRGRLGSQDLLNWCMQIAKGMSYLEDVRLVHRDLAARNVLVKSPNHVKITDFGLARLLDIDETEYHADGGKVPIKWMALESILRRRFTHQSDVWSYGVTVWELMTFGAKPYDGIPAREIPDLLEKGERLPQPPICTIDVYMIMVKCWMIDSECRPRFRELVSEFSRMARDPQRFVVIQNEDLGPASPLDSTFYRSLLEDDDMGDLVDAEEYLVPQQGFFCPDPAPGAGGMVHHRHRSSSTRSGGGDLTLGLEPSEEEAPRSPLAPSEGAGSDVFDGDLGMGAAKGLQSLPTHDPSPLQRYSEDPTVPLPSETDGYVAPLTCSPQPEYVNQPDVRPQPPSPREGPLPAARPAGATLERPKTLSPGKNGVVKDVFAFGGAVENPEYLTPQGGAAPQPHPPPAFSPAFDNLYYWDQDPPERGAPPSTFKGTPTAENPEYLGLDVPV
The experiment in a line: Inhibitory Activity of Compounds Against HER2 A775_G776insYVMA mutant enzyme. The method, then: The activity of the compounds of the present invention against HER mutant enzymes was measured using the HTRF system purchased by Cisbio as follows. As a HER2 mutant enzyme, the HER2 A775_G776insYVMA mutant enzyme was used by purchasing a recombinant protein provided by Carna Biosciences.The composition of the assay buffer used for activity measurement was 50 mM tris-HCl pH 7.5, 100 mM NaCl, 7.5 mM MgCl2, 3 mM KCl, 0.01% tween 20, 0.1% BSA, and 1 mM DTT. In addition thereto, the enzymatic reaction was performed using a peptide substrate labeled with ATP at a concentration of […] and biotin at a concentration of […]. The analysis of the activity inhibitory effect of the compounds on HER2 A775_G776insYVMA mutation was performed according to the following method.Component 1:4 μL of HER2 A775_G776insYVMA mutant enzymeComponent 2:2 μL of compound solutionComponent 3:4 μL of ATP and a biotin labeled peptideThe enzyme reaction begins by first mixing component 1 and component 2 and then adding component 3 thereto. After the reaction at 37° C. for 2 hours, […] of a measurement solution consisting of streptavidin-XL665 and a europium-labeled anti-phosphotyrosine antibody purchased from Cisbio was added to the enzyme reaction solution and reacted at room temperature for 1 hour. Finally, the ratio of fluorescence values at 615 nm and 665 nm was measured using Perkin-Elmer's Envision equipment to calculate enzyme activity and confirm the inhibitory ability of the compounds.

These results are taken from BindingDB's records for patent US20240343694 (Korea Reserarch Institute of Chemical Technology, 2024).

For orientation: pIC50 means the negative decadic logarithm of the IC50, by convention in mol/L. Low values mean a large IC50, high ones a small IC50.

pIC50: −log10 of the molar value.

T1 sequence (P00533 with tags, fused parts or gaps INS763FHEA limits assumed): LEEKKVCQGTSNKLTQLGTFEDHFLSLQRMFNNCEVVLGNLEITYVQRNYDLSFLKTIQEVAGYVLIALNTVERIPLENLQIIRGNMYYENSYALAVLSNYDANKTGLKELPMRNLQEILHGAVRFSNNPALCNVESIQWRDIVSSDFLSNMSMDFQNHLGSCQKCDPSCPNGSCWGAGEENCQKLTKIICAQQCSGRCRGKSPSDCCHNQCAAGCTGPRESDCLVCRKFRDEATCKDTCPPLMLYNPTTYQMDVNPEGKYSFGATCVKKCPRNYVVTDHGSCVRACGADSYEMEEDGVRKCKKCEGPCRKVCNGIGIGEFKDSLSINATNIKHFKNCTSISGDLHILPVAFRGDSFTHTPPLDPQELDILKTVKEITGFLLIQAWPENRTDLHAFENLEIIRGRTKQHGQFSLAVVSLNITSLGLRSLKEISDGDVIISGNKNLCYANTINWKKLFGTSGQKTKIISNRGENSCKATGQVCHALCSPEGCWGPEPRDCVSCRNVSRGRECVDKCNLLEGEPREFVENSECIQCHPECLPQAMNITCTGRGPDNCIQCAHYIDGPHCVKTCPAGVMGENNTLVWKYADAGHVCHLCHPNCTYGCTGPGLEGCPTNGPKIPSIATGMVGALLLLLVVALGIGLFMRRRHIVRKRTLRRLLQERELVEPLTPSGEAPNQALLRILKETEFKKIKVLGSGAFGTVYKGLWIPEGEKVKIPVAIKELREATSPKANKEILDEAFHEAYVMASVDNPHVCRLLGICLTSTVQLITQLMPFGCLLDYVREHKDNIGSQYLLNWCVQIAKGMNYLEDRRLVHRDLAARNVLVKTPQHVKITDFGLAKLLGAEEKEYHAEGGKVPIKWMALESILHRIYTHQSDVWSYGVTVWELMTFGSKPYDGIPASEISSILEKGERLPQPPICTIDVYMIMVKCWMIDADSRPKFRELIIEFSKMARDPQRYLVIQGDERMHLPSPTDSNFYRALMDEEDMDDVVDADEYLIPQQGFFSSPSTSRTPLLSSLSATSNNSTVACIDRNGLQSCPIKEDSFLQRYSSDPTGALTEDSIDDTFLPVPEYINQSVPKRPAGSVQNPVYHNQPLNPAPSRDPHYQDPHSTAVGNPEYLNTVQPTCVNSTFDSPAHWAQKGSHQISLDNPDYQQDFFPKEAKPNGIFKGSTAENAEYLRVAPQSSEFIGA

With `Cc1ccc(S(=O)(=O)Nc2ccccc2Nc2nc(Cl)ncc2F)cc1` [US20240343694, Example 23], the pIC50 was 8.52 in assay [1], greater than 9.00 in assay [2] and 7.52 in assay [3].

On to `Cc1cnc(Cl)nc1Nc1ccccc1NS(C)(=O)=O` [US20240343694, Example 24], for which the pIC50 in assay [1] is 8.52; in assay [2], greater than 9.00; in assay [3], 7.57.

As for `Cc1ccc(S(=O)(=O)Nc2ccccc2Nc2nc(Cl)ncc2C)cc1` [US20240343694, Example 25], the negative-log IC50 (pIC50) is greater than 9.00 in assay [1], greater than 9.00 in assay [2] and 8.22 in assay [3].

As for `CCCS(=O)(=O)Nc1ccccc1Nc1nc(Cl)ncc1C` [US20240343694, Example 26], the values for the negative-log IC50 (pIC50) in assay [1], in assay [2] and in assay [3] were 6.70, 8.40 and 7.10, respectively.

`CCS(=O)(=O)Nc1ccccc1Nc1nc(Cl)ncc1C` [US20240343694, Example 27]: the negative logarithm of the IC50 (pIC50) in assay [1] was 8.05; in assay [2] it was 8.52; in assay [3], 7.52.

On to `Cc1cnc(Cl)nc1Nc1ccccc1NS(=O)(=O)c1ccccc1` [US20240343694, Example 28], for which the values for the pIC50 in assay [1], in assay [2] and in assay [3] were 8.10, greater than 9.00 and 7.15, respectively.

With `C=CC(=O)Nc1cc(N)c(OC)cc1N(C)CCN1CCCC1` [US20240343694, Example 29], the pIC50 in assay [1] is greater than 9.00; in assay [2], greater than 9.00; in assay [3] it was 8.30.

In the case of `C=CC(=O)Nc1cc(N)c(OC)cc1OCCN1CCCC1` [US20240343694, Example 30], the pIC50 was greater than 9.00 in assay [1], greater than 9.00 in assay [2] and 8.40 in assay [3].

`C=CC(=O)Nc1cc(N)c(OC)cc1N(C)CCN1CCCCC1` [US20240343694, Example 31]: the pIC50 is greater than 9.00 in assay [1], greater than 9.00 in assay [2] and 9.52 in assay [3].

For the compound `C=CC(=O)Nc1cc(N)c(OC)cc1N(C)CCN(C(=O)OCc1ccccc1)C(C)C` [US20240343694, Example 32], the negative-log IC50 (pIC50) in assay [1] was 9.00; in assay [2], greater than 9.00; in assay [3], 8.10.

Turning to `C=CC(=O)Nc1cc(Nc2ncc(Cl)c(Nc3ccccc3NS(C)(=O)=O)n2)c(OC)cc1N(C)CCN(C(=O)OCc1ccccc1)C(C)C` [US20240343694, Example 33], the values for the pIC50 in assay [1], in assay [2] and in assay [3] were greater than 9.00, greater than 9.00 and 8.15, respectively.

Consider `C=CC(=O)Nc1cc(N)c(OC)cc1N(C)CCN(C)C(=O)OCc1ccccc1` [US20240343694, Example 34], for which the pIC50 is 9.00 in assay [1], greater than 9.00 in assay [2] and 7.70 in assay [3].

In the case of `C=CC(=O)Nc1cc(Nc2ncc(Cl)c(Nc3ccccc3NS(C)(=O)=O)n2)c(OC)cc1N(C)CCN(C)C(=O)OCc1ccccc1` [US20240343694, Example 35], the pIC50 in assay [1] was 8.52; in assay [2], greater than 9.00; in assay [3] it was 7.57.

As for `COc1cc(N2CCOCC2)c(N)cc1Nc1ncc(Cl)c(Nc2ccccc2NS(C)(=O)=O)n1` [US20240343694, Example 36], the negative logarithm of the IC50 (pIC50) in assay [1] was 9.00; in assay [2], greater than 9.00; in assay [3], 8.00.

For `COc1cc(N2CCN(C)CC2)c(N)cc1Nc1ncc(Cl)c(Nc2ccccc2NS(C)(=O)=O)n1` [US20240343694, Example 37], the pIC50 was 8.70 in assay [1], greater than 9.00 in assay [2] and 7.59 in assay [3].

As to `COc1cc(N(C)CCN(C)C)c(N)cc1Nc1ncc(Cl)c(Nc2ccccc2NS(C)(=O)=O)n1` [US20240343694, Example 38], the negative logarithm of the IC50 (pIC50) in assay [1] is 8.70; in assay [2], greater than 9.00; in assay [3], 7.85.

As to `CN(c1ccccc1Nc1nc(Cl)ncc1Cl)S(C)(=O)=O` [US20240343694, Example 39], the results for the pIC50 in assay [1], in assay [2] and in assay [3] were greater than 9.00, greater than 9.00 and 8.10, respectively.

As for `CCS(=O)(=O)N(C)c1ccccc1Nc1nc(Cl)ncc1Cl` [US20240343694, Example 40], the negative logarithm of the IC50 (pIC50) in assay [1] was 9.00; in assay [2] it was greater than 9.00; in assay [3], 8.40.

Take `CCN(c1ccccc1Nc1nc(Cl)ncc1Cl)S(C)(=O)=O` [US20240343694, Example 41]: the figures for the negative-log IC50 (pIC50) in assay [1], in assay [2] and in assay [3] were 9.00, greater than 9.00 and 8.05, respectively.

Take `CC(C)N(c1ccccc1Nc1nc(Cl)ncc1Cl)S(C)(=O)=O` [US20240343694, Example 42]: the negative logarithm of the IC50 (pIC50) in assay [1] was greater than 9.00; in assay [2], greater than 9.00; in assay [3] it was 8.22.

Turning to `CCN(c1ccccc1Nc1nc(Cl)ncc1Cl)S(=O)(=O)CC` [US20240343694, Example 43], the negative-log IC50 (pIC50) in assay [1] was greater than 9.00; in assay [2], greater than 9.00; in assay [3] it was 8.10.

Consider `CS(=O)(=O)Nc1c(Cl)cccc1Nc1nc(Cl)ncc1Cl` [US20240343694, Example 44], for which the values for the negative-log IC50 (pIC50) in assay [1], in assay [2] and in assay [3] were greater than 9.00, greater than 9.00 and 8.22, respectively.

As to `CN(c1c(Cl)cccc1Nc1nc(Cl)ncc1Cl)S(C)(=O)=O` [US20240343694, Example 45], the pIC50 in assay [1] was greater than 9.00; in assay [2] it was greater than 9.00; in assay [3] it was 8.10.

As to `Cc1cccc(Nc2nc(Cl)ncc2Cl)c1NS(C)(=O)=O` [US20240343694, Example 46], the negative logarithm of the IC50 (pIC50) in assay [1] was greater than 9.00; in assay [2], greater than 9.00; in assay [3] it was 8.70.

For the compound `CC(C)c1cccc(Nc2nc(Cl)ncc2Cl)c1N(C)S(C)(=O)=O` [US20240343694, Example 47], the negative-log IC50 (pIC50) in assay [1] is greater than 9.00; in assay [2] it was greater than 9.00; in assay [3], 8.22.

Take `Cc1cccc(Nc2nc(Cl)ncc2Cl)c1N(C)S(C)(=O)=O` [US20240343694, Example 48]: the pIC50 in assay [1] was 8.15; in assay [2], 8.52; in assay [3] it was 7.70.

Regarding `CCN(c1c(C)cccc1Nc1nc(Cl)ncc1Cl)S(C)(=O)=O` [US20240343694, Example 49], the figures for the pIC50 in assay [1], in assay [2] and in assay [3] were 8.00, 10.00 and 7.22, respectively.

For `CCc1cccc(Nc2nc(Cl)ncc2Cl)c1NS(C)(=O)=O` [US20240343694, Example 50], the negative-log IC50 (pIC50) in assay [1] is 8.52; in assay [2], greater than 9.00; in assay [3], 7.22.

Turning to `CCc1cccc(Nc2nc(Cl)ncc2Cl)c1N(C)S(C)(=O)=O` [US20240343694, Example 51], the pIC50 in assay [1] was greater than 9.00; in assay [2], greater than 9.00; in assay [3] it was 7.52.

`CCc1cccc(Nc2nc(Cl)ncc2Cl)c1NS(=O)(=O)CC` [US20240343694, Example 52]: the pIC50 in assay [1] was greater than 9.00; in assay [2], greater than 9.00; in assay [3] it was 8.40.

`Cc1ccc(Nc2nc(Cl)ncc2Cl)c(N(C)S(C)(=O)=O)c1C` [US20240343694, Example 53] showed a pIC50 in assay [3] of 8.00.

In the case of `Cc1ccc(Nc2nc(Cl)ncc2Cl)c(NS(C)(=O)=O)c1C` [US20240343694, Example 54], the pIC50 in assay [1] was greater than 9.00; in assay [2] it was greater than 9.00; in assay [3], 8.00.

Consider `Cc1ccc(Nc2nc(Cl)ncc2Cl)c(N(C)S(C)(=O)=O)c1` [US20240343694, Example 55], for which the negative-log IC50 (pIC50) in assay [1], in assay [2] and in assay [3] was greater than 9.00 throughout.

Consider `Cc1ccc(Nc2nc(Cl)ncc2Cl)c(NS(C)(=O)=O)c1` [US20240343694, Example 56], for which the pIC50 in assay [1], in assay [2] and in assay [3] was greater than 9.00 throughout.

Consider `CS(=O)(=O)N1CCCc2cccc(Nc3nc(Cl)ncc3Cl)c21` [US20240343694, Example 57], for which the pIC50 in assay [1], in assay [2] and in assay [3] was greater than 9.00 in each case.

Consider `CC(C)OC(=O)c1cnc(Cl)nc1Nc1cccc2c1N(S(C)(=O)=O)CCC2` [US20240343694, Example 62], for which the pIC50 in assay [3] was 8.52.

In assay [3], `C=CC(=O)Nc1cc(N)c(OC)cc1N(C)CCN1CCOCC1` [US20240343694, Example 63] gave a negative logarithm of the IC50 (pIC50) greater than 9.00.
